How the values were obtained:
[1] = tested on: heat shock protein 72 (HSP72); assay: Immunoblotting analysis of HSP72 in C2C12 myotubes; type: cell-based; details: T1AM-treated group vs control
Experimental: (§1) C2C12 myoblasts were purchased from American Type Culture Collection (Rockville, Md., USA) and cultured in a DMEM medium containing 4,500 mg/L glucose supplemented with 10% fetal bovine serum (Hyclone, Logan, Utah, USA) and 1% antibiotics/antimycotics Gibco, Burlington, Ontario, Canada). The myoblasts were stored under conditions of 37° C. and 5% CO2. The myoblasts were grown on a 6-well culture plate for immunoblot analysis and measurement of diameters of myotubes. The myoblasts were maintained in each well for 5 days by replacing the medium with a differentiation medium (DMEM containing 2% horse serum and 1% antibiotics/antimycotics) at about 80% confluent state and induced to be differentiated into myotubes. The medium was replaced with a new medium every two days.
(§2) The cells were obtained with a RIPA buffer, degraded by repeated suction through a 21 gauge needle, and the transferred to a 1.5 mL microtube. A sample was cultured on ice for 5 minutes and centrifuged at 13,000 rpm at 4° C. for 10 minutes. A supernatant was obtained with whole-cell soluble lysates and the protein concentration was determined through Bradford assay. […]
(§3) The proteins were electrophoretically transferred from the gel to a nitrocellulose membrane. […] An immunocomplex was detected by the ECL system (GE Healthcare, Fairfield, Conn., USA) and the obtained bands were quantified by ImageJ 1.47t software (NIH, MD, USA). […]

αB-crystallin = assay: Immunoblotting analysis of αB-crystallin in C2C12 myotubes; type: cell-based; details: T1AM-treated group vs control
Experimental: as §1, §2, §3

FoxO3 = assay: Immunoblotting analysis of p-FoxO3 and FoxO3 in C2C12 myotubes; type: cell-based; details: T1AM-treated group vs control
Experimental: as §1
(§4) The cells were obtained with a RIPA buffer, degraded by repeated suction through a 21 gauge needle, and the transferred to a 1.5 mL microtube. A sample was cultured on ice for 5 minutes and centrifuged at 13,000 rpm at 4° C. for 10 minutes. A supernatant was obtained with whole-cell soluble lysates and the protein concentration was determined through Bradford assay. To detect AMPK, phospho-AMPK (p-AMPK), FoxO1, p-FoxO1, FoxO3, p-FoxO3, Akt1, p-Akt1, S6K, p-S6K, MuRF1, MAFbx, HSP90, HSP72, HSP60, HSP27, αB-crystallin, and GAPDH, a total of 30 μg of proteins was electrophoresed on 8 to 10% SDS-PAGE.
(§5) The proteins were electrophoretically transferred from the gel to a nitrocellulose membrane. The membrane reacted with a blocking buffer (1X TBS, 0.5% Tween-20 with 5% w/v nonfat dry milk) for 1 hour at room temperature and then washed with 10 mL TBST three times every 10 minutes. […] An immunocomplex was detected by the ECL system (GE Healthcare, Fairfield, Conn., USA) and the obtained bands were quantified by ImageJ 1.47t software (NIH, MD, USA). […]
(§6) The cells on each 6-well plate were washed three times with 1× PBS and fixed with 4% paraformaldehyde for 30 minutes at room temperature. […] Fluorescent-labeled cells were detected with a Carl Zeiss LSM750 confocal microscope (Jena, Germany).

FoxO1 = assay: Immunoblotting analysis of p-FoxO1 and FoxO1 in C2C12 myotubes; type: cell-based; details: T1AM-treated group vs control
Experimental: as §1, §4, §5, §6

HSP60 = assay: Immunoblotting analysis of HSP60 in C2C12 myotubes; type: cell-based; details: T1AM-treated group vs control
Experimental: as §1, §2, §3

MAFbx = assay: Immunoblotting analysis of MAFbx in C2C12 myotubes; type: cell-based; details: T1AM treatment vs control
Experimental: as §1, §2, §3

Akt1 = assay: Immunoblotting analysis of p-Akt1 and Akt1 in C2C12 myotubes; type: cell-based; details: T1AM-treated group vs control
Experimental: as §1, §4
as §5, with “minutes. Thereafter, the membranes reacted with a primary antibody diluted appropriately with 10 mL TBST (1:500 to 1:10,000) overnight at 4° C.” for “minutes.”

C2C12 myotubes = assay: Measurement of diameter (size) of C2C12 myotubes; type: cell-based; details: 75 μM of T1AM for 6 hours
Experimental: as §1
To verify the effect of T1AM on the size of C2C12 myotubes, the cells were fixed with 4% paraformaldehyde and photographed at 200× magnification on an Axiovert 200 optical microscope. For analysis, the cells were divided into 9 fractions in order to randomly select the cells. The diameter of each myotube was measured using Image J software (NIH, Frederick, Md., USA).
To determine whether T1AM induced muscular atrophy in C2C12 myotubes, cells were photographed under a phase contrast microscope (FIG. 1A) and the diameter was measured at 200× magnification (FIG. 1B).

MuRF1 = assay: Immunoblotting analysis of MuRF1 in C2C12 myotubes; type: cell-based; details: T1AM-treated group vs control
Experimental: as §1, §2, §3

AMPK = assay: Immunoblotting analysis of p-AMPK and AMPK in C2C12 myotubes; type: cell-based; details: T1AM-treated group vs control
Experimental: as §1, §4
as §5, with “minutes. Thereafter, the membranes reacted with a primary antibody diluted appropriately with 10 mL TBST (1:500 to 1:10,000) overnight at 4° C.” for “minutes.”

S6K = assay: Immunoblotting analysis of p-S6K and S6K in C2C12 myotubes; type: cell-based
Experimental: as §1, §2, §3

26S proteasome = assay: Chymotrypsin-like activity of 26S proteasome, cell-based luminescence assay; details: C2C12 myotubes, T1AM-treated group vs control
Experimental: Two groups of myotubes were trypsinized and then washed with a fresh differentiation medium. Among three determinants of proteasome activities (trypsin-, chemotrypsin- and caspase-like activities), the chemotrypsin-like activity is regarded as representative of the protease capacity of the proteasome. The chemotrypsin-like activity was determined according to the manufacturer's protocol using a Promega Proteasome-Glo cell-based luminescence assay kit (Promega, Madison, Wis., USA) by approximately 7,500 cells measured by a cell counter (Biorad, Hercules, Calif., USA) in 50 μl of the differentiation medium. To confirm the specificity of the analysis, a partial sample containing the same number of cells was pretreated with a proteasome inhibitor, epoxomicin, at a concentration of 10 μM for 30 minutes. The chemotrypsin-like activity was measured by the same process and the result was used as a background signal for analysis. The luminescence was measured with a GloMax 20/20 Luminometer (Promega).

In the case of `NCCc1ccc(Oc2ccc(O)cc2)c(I)c1` [T1AM, 3-iodothyronamine], the “expression level of HSP72, down-regulated compared to the control” value [1] is reported as 0.89 times, the “expression level of αB-crystallin, down-regulated compared to the control” value (αB-crystallin) is reported as 0.63 times and the “expression ratio of p-FoxO3/FoxO3, lower than control” value (FoxO3) is reported as 0.39 times. For the same compound, the “p-FoxO3 level, lowered” value (FoxO3) was 0.58 times, the “total expression of FoxO3 between T1AM-treated group and control” value (FoxO3) was “not different” and the “expression ratio of p-FoxO1/FoxO1, lowered” value (FoxO1) was 0.66 times. The “phosphorylation level of FoxO1 between the two groups” value (FoxO1) was “similar”, the “total expression of FoxO1, higher than control” value (FoxO1) was 2.5 times and the “difference in HSP60 expression between the two groups” value (HSP60) was “not statistically significant”. For the same compound, the “expression of MAFbx” value (MAFbx) was “not affected”, the “expression ratio of p-Akt1/Akt1, lower than control” value (Akt1) was 0.45 times and the “non-phosphorylation level of Akt1 between the two groups” value (Akt1) was “similar”. The “phosphorylation level of Akt1 compared to the control” value (Akt1) was “significantly down-regulated”, the “size of myotube, decrease compared to vehicle control” value (C2C12 myotubes) was 0.13 times and the “expression of MuRF1, higher than control” value (MuRF1) was 1.8 times. The “AMPK phosphorylation, increase compared to the control” value (AMPK) was 2.7 times, the “expression ratio of p-AMPK/AMPK, higher than control” value (AMPK) was 2.0 times and the “total expression levels of AMPK, between the two groups” value (AMPK) was “similar”. The p-S6K level (S6K; T1AM treatment vs control) was “lowered”, the “expression ratio of p-S6K/S6K, lower than control” value (S6K; T1AM-treated group vs control) was 0.53 times and the “chymotrypsin-like activity of proteasome, higher than control” value (26S proteasome) was 1.5 times.
